Reference: ChEMBL document CHEMBL4699558, “Lead optimization of 8-(methylamino)-2-oxo-1,2-dihydroquinolines as bacterial type II topoisomerase inhibitors” (Bioorg Med Chem, 2020)
Values after ≈ are worked out from the molar mass of the structure shown.

How the values were obtained:
[1] = system: Staphylococcus aureus; experiment: Antibacterial activity against Methicillin-resistant Staphylococcus aureus by CLSI method; type: functional
[2] = system: Enterococcus; experiment: Antibacterial activity against Vancomycin-resistant Enterococcus by CLSI method; type: functional
[3] = system: Streptococcus pneumoniae; experiment: Antibacterial activity against genotype penicillin-resistant Streptococcus pneumoniae by CLSI method; type: functional
[4] = system: Staphylococcus aureus; experiment: Antibacterial activity against hospital-acquired Methicillin -resistant Staphylococcus aureus ATCC BAA-811 by CLSI method; type: functional
[5] = system: Staphylococcus aureus; experiment: Antibacterial activity against community-acquired Methicillin -resistant Staphylococcus aureus ATCC BAA-1556 by CLSI method; type: functional
[6] = target: DNA gyrase (Escherichia coli, UniProt P0AES4+P0AES6); experiment: Inhibition of Escherichia coli DNA gyrase by measuring supercoiling activity incubated for 60 mins by fluorescence based assay; type: protein-complex assay
[7] = Inhibition of Escherichia coli topoisomerase IV by measuring relaxation activity incubated for 30 mins by fluorescence based assay
[8] = system: Escherichia coli; experiment: Antibacterial activity against Escherichia coli ATCC 25922 by CLSI method; type: functional
[9] = system: Escherichia coli; experiment: Antibacterial activity against Escherichia coli ATCC 25922 in presence of PAbetaN by CLSI method; type: functional
[10] = system: Staphylococcus aureus; experiment: Antibacterial activity against Staphylococcus aureus ATCC 29213 by CLSI method; type: functional
[11] = system: Enterococcus faecium; experiment: Antibacterial activity against Enterococcus faecium ATCC 35667 by CLSI method; type: functional
[12] = system: Enterococcus faecium; experiment: Antibacterial activity against vancomycin-resistant Enterococcus faecium ATCC 51559 by CLSI method; type: functional
[13] = system: Enterococcus faecalis; experiment: Antibacterial activity against Enterococcus faecalis ATCC 29212 by CLSI method; type: functional
[14] = system: Enterococcus faecalis; experiment: Antibacterial activity against vancomycin-resistant Enterococcus faecalis ATCC 51575 by CLSI method; type: functional
[15] = system: Streptococcus pneumoniae; experiment: Antibacterial activity against Streptococcus pneumoniae ATCC 49619 by CLSI method; type: functional
[16] = system: Streptococcus anginosus; experiment: Antibacterial activity against Streptococcus anginosus ATCC 33397 by CLSI method; type: functional
[17] = system: Haemophilus influenzae; experiment: Antibacterial activity against Haemophilus influenzae ATCC 43095 by CLSI method; type: functional
[18] = target: DNA topoisomerase 2-alpha (Homo sapiens, UniProt P11388); experiment: Inhibition of human topoisomerase 2alpha; type: ADME
[19] = target: Voltage-gated inwardly rectifying potassium channel KCNH2 (Homo sapiens, UniProt Q12809); experiment: Inhibition of human ERG expressed in CHO cells by Q-patch clamp assay
[20] = Cytotoxicity against human HepG2 cells assessed as reduction in cell viability at 10 uM incubated for 48 hrs by CCK-8 assay
[21] = Cytotoxicity against human HepG2 cells assessed as reduction in cell viability at 50 uM incubated for 48 hrs by CCK-8 assay
[22] = system: Clostridioides difficile; experiment: Antibacterial activity against Clostridioides difficile ATCC 700057 by CLSI method; type: functional
[23] = system: Peptostreptococcus anaerobius; experiment: Antibacterial activity against Peptostreptococcus anaerobius ATCC 27337 by CLSI method; type: functional
[24] = system: Bacteroides fragilis; experiment: Antibacterial activity against Bacteroides fragilis ATCC 25285 by CLSI method; type: functional
[25] = system: Prevotella melaninogenica; experiment: Antibacterial activity against Prevotella melaninogenica JCM6325 by CLSI method; type: functional
[26] = system: Porphyromonas gingivalis; experiment: Antibacterial activity against Porphyromonas gingivalis JCM8525 by CLSI method; type: functional
[27] = system: Fusobacterium nucleatum; experiment: Antibacterial activity against Fusobacterium nucleatum JCM8532 by CLSI method; type: functional

DNA topoisomerase 2-alpha, sequence (P11388 whole entry): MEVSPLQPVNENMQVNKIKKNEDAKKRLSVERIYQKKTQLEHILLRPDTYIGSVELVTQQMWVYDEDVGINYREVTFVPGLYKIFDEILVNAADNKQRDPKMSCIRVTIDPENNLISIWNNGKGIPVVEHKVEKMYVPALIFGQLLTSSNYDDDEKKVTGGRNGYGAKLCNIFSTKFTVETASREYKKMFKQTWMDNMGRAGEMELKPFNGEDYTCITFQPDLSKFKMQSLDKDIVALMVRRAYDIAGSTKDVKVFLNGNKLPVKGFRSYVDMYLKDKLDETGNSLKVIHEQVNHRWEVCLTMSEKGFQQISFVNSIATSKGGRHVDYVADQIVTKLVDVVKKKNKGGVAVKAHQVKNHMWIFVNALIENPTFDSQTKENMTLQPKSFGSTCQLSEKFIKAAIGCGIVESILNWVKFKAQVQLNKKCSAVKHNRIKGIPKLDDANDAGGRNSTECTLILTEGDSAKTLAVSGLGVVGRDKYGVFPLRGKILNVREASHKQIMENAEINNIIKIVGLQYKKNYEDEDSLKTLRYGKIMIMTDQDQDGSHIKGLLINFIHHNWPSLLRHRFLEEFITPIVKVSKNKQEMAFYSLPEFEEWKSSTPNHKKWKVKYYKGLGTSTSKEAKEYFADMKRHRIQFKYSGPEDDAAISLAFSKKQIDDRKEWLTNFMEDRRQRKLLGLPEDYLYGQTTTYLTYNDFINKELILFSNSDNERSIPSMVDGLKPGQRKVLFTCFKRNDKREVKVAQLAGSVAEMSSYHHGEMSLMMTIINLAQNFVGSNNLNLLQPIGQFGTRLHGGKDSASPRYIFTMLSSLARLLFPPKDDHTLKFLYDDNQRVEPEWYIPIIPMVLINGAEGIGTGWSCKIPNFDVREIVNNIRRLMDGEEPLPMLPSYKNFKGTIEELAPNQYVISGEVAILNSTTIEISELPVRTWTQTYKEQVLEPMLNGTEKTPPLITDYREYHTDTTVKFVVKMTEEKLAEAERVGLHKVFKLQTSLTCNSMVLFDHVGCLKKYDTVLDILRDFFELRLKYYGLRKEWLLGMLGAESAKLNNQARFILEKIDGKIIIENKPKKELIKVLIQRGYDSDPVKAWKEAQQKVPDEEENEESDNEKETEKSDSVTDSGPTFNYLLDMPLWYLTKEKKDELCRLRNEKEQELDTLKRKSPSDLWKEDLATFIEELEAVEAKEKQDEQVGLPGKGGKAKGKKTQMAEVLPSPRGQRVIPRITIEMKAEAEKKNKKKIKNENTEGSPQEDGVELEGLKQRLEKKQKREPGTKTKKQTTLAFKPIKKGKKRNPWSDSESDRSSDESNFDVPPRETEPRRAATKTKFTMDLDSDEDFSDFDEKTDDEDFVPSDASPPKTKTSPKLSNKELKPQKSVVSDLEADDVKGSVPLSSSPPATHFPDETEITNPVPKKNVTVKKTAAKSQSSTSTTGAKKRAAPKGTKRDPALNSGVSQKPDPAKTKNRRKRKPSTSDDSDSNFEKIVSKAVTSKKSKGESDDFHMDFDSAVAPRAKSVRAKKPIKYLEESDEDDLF
Voltage-gated inwardly rectifying potassium channel KCNH2, sequence (Q12809 whole entry): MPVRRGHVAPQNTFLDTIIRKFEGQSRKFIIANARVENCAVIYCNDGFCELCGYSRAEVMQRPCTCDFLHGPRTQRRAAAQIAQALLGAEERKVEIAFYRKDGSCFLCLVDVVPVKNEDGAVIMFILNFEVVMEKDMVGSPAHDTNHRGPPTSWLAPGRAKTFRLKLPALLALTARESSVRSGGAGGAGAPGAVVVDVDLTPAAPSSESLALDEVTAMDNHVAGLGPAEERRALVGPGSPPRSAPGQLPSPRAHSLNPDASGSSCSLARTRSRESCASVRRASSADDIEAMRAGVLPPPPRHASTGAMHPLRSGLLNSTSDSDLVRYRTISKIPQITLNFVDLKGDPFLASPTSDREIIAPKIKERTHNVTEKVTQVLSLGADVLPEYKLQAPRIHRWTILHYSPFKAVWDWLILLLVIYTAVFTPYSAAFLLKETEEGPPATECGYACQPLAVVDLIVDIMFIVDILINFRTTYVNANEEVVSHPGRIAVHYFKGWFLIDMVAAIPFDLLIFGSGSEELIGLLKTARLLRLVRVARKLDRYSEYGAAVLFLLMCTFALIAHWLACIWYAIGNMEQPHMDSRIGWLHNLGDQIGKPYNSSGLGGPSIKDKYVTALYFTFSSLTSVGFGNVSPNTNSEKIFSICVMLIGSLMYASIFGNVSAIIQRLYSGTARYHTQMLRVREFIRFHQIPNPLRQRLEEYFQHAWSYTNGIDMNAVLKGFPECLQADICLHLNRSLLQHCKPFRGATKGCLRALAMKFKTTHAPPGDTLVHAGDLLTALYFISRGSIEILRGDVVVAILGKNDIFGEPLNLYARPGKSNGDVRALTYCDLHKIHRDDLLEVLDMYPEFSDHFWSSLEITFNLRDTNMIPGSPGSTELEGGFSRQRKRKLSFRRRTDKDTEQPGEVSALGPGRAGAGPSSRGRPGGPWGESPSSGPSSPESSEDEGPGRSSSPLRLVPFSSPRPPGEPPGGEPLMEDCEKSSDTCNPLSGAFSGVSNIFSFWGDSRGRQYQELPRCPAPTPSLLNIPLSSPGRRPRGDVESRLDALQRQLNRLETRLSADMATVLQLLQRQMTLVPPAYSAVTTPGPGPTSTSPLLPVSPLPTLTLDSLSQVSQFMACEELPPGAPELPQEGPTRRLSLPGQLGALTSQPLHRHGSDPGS

Structure (SMILES) | MIC50 [3] | MIC90 [3] | IC50 [6] | IC50 [7] | MIC [8] | MIC [9] | MIC [10] | MIC [11] | MIC [13] | MIC [15] | MIC [17] | further results
C[C@H]1COc2c(N3CCN(C)CC3)c(F)cc3c(=O)c(C(=O)O)cn1c23.C[C@H]1COc2c(N3CCN(C)CC3)c(F)cc3c(=O)c(C(=O)O)cn1c23.O [LEVOFLOXACIN] | 2 µg/mL | 2 µg/mL | – | – | – | – | – | – | – | – | – | MIC50 [1]: 16 µg/mL; MIC90 [1]: > 128 µg/mL; MIC50 [2]: 8 µg/mL; MIC90 [2]: 128 µg/mL
CNc1cc(F)cc2cc(C(=O)Nc3ccc(C(=O)O)cc3CN(CCO)C3CCCCC3)c(=O)[nH]c12.Cl | – | – | 0.29 nM | 23.4 nM | 4 µg/mL | ≤ 0.03 µg/mL | 0.5 µg/mL | 0.015 µg/mL | 0.008 µg/mL | 0.015 µg/mL | 0.06 µg/mL | MIC [4]: 1 µg/mL; MIC [5]: 1 µg/mL; MIC [12]: 0.015 µg/mL; MIC [14]: 0.008 µg/mL; MIC [16]: 0.008 µg/mL; IC50 [18]: > 100000 nM; IC50 [19]: > 30000 nM; cytotoxicity at 48 h, 10 µM ([20]; HepG2 cells): -2.04%; cytotoxicity at 48 h, 50 µM ([21]; HepG2 cells): 7.76%; MIC [22]: 1 µg/mL; MIC [23]: 0.12 µg/mL; MIC [24]: > 32 µg/mL; MIC [25]: > 32 µg/mL; MIC [26]: 0.12 µg/mL; MIC [27]: 0.12 µg/mL
CC(=O)NC[C@H]1CN(c2ccc(N3CCOCC3)c(F)c2)C(=O)O1 [LINEZOLID] | – | – | – | – | – | – | – | – | – | – | – | MIC50 [1]: 4 µg/mL (≈ 11.9 µM); MIC90 [1]: 4 µg/mL (≈ 11.9 µM); MIC50 [2]: 4 µg/mL (≈ 11.9 µM); MIC90 [2]: 4 µg/mL (≈ 11.9 µM)
CCCCCN(CCCCC)Cc1cc(C(=O)O)ccc1NC(=O)c1cc2cc(F)cc(NC)c2[nH]c1=O | – | – | 0.8 nM | – | – | ≤ 0.03 µg/mL | 0.06 µg/mL (≈ 0.114 µM) | 0.06 µg/mL (≈ 0.114 µM) | 0.015 µg/mL (≈ 0.0286 µM) | 0.015 µg/mL (≈ 0.0286 µM) | 0.25 µg/mL (≈ 0.477 µM) | MIC [4]: 0.5 µg/mL (≈ 0.953 µM); MIC [5]: 0.5 µg/mL (≈ 0.953 µM); MIC [14]: 0.015 µg/mL (≈ 0.0286 µM); IC50 [18]: > 100000 nM; cytotoxicity at 48 h, 10 µM ([20]; hepg2): 8.11%; cytotoxicity at 48 h, 50 µM ([21]; hepg2): 46.7%; MIC [23]: 0.12 µg/mL (≈ 0.229 µM); MIC [24]: > 32 µg/mL; MIC [26]: 0.12 µg/mL (≈ 0.229 µM); MIC [27]: 1 µg/mL (≈ 1.91 µM)
CNc1cc(F)cc2cc(C(=O)Nc3ccc(C(=O)O)cc3CN3CCCCC3)c(=O)[nH]c12 | – | – | 0.31 nM | 15.3 nM | 8 µg/mL (≈ 17.7 µM) | ≤ 0.03 µg/mL | 4 µg/mL (≈ 8.84 µM) | 0.03 µg/mL (≈ 0.0663 µM) | 0.015 µg/mL (≈ 0.0332 µM) | 0.03 µg/mL (≈ 0.0663 µM) | 0.06 µg/mL (≈ 0.133 µM) | MIC [4]: 4 µg/mL (≈ 8.84 µM); MIC [5]: 4 µg/mL (≈ 8.84 µM); MIC [12]: 0.015 µg/mL (≈ 0.0332 µM); MIC [14]: 0.015 µg/mL (≈ 0.0332 µM); MIC [16]: 0.03 µg/mL (≈ 0.0663 µM)
CNc1cc(F)cc2cc(C(=O)Nc3ccc(C(=O)NS(=O)(=O)N(C)C)cc3)c(=O)[nH]c12 | – | – | 0.43 nM | 51.9 nM | 16 µg/mL (≈ 34.7 µM) | ≤ 0.015 µg/mL | – | 0.06 µg/mL (≈ 0.13 µM) | 0.03 µg/mL (≈ 0.065 µM) | 0.06 µg/mL (≈ 0.13 µM) | 0.06 µg/mL (≈ 0.13 µM) | MIC [16]: 0.12 µg/mL (≈ 0.26 µM)
CNc1cc(F)cc2cc(C(=O)Nc3ccc(C(=O)O)cc3CN(CC(=O)O)C3CCCCC3)c(=O)[nH]c12 | – | – | 0.57 nM | 76.3 nM | > 64 µg/mL | 0.12 µg/mL | 32 µg/mL (≈ 61 µM) | – | – | – | – | –
CNc1cc(F)cc2cc(C(=O)Nc3ccc(C(=O)O)cc3CN(C)C3CC3)c(=O)[nH]c12 | – | – | 0.6 nM | 771 nM | > 8 µg/mL | ≤ 0.03 µg/mL | > 8 µg/mL | – | – | – | – | –
C[C@@H](O)[C@H]1C(=O)N2C(C(=O)O)=C(S[C@@H]3CN[C@H](C(=O)N(C)C)C3)[C@H](C)[C@H]12 [MEROPENEM] | 0.5 µg/mL (≈ 1.3 µM) | 1 µg/mL (≈ 2.61 µM) | – | – | – | – | – | – | – | – | – | –
CCC[C@@H]1C[C@@H](C(=O)N[C@@H]([C@H]2O[C@H](SC)[C@H](O)[C@@H](O)[C@H]2O)[C@H](C)Cl)N(C)C1 [CLINDAMYCIN] | – | – | – | – | – | – | – | – | – | – | – | MIC [22]: 8 µg/mL (≈ 18.8 µM); MIC [23]: 0.25 µg/mL (≈ 0.588 µM); MIC [24]: 1 µg/mL (≈ 2.35 µM); MIC [25]: 0.03 µg/mL (≈ 0.0706 µM); MIC [26]: ≤ 0.015 µg/mL
CC1(C)S[C@@H]2[C@H](NC(=O)Cc3ccccc3)C(=O)N2[C@H]1C(=O)O [PENICILLIN G] | 2 µg/mL (≈ 5.98 µM) | 4 µg/mL (≈ 12 µM) | – | – | – | – | – | – | – | – | – | –
CC[C@H]1OC(=O)[C@H](C)[C@@H](O[C@H]2C[C@@](C)(OC)[C@@H](O)[C@H](C)O2)[C@H](C)[C@@H](O[C@@H]2O[C@H](C)C[C@H](N(C)C)[C@H]2O)[C@](C)(O)C[C@@H](C)CN(C)[C@H](C)[C@@H](O)[C@]1(C)O [AZITHROMYCIN] | > 128 µg/mL | > 128 µg/mL | – | – | – | – | – | – | – | – | – | –
